What was measured:
Pythium ultimum = test: Growth inhibition in potato dextrose broth, Pythium ultimum (damping off), photometric; format: cell-based; settings: Globisporangium ultimum, 24° C., 48 hours, read-out: control of fungal infection, Pythium ultimum
Method in brief: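 Growth inhibition was read photometrically at 48 hours after incubation at 24° C. Test compound was diluted from DMSO to 20 ppm in water and combined with potato dextrose broth seeded with Pythium ultimum mycelial fragments.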

Botrytis cinerea = test: Leaf disk assay, Botrytis cinerea (grey mould) on bean, preventive; format: in vivo; settings: foliar, 96 h, bean leaf disks, assessed four days after inoculation, read-out: control of fungal infection, Botrytis cinerea
Phytophthora infestans = test: whole plant or invertebrate; format: in vivo; settings: in Solanum lycopersicum, foliar, 96 h, read-out: control of fungal infection, Phytophthora infestans
Plasmopara viticola = test: Leaf disk assay, Plasmopara viticola (downy mildew of grapevine), preventive; format: in vivo; settings: foliar, 168 h, grapevine leaf disks, assessed seven days after inoculation, read-out: control of fungal infection, Plasmopara viticola
Septoria tritici = test: Growth inhibition in nutrient broth, Septoria tritici (leaf blotch), photometric; format: cell-based; settings: Zymoseptoria tritici, PDB broth, 24 C, 72 hrs, read-out: control of fungal infection, Septoria tritici
[1] = test system: Erysiphe graminis f.sp. tritici; test: Leaf disk assay, Erysiphe graminis f.sp. tritici (wheat powdery mildew), preventive; format: in vivo; settings: Blumeria graminis, foliar, 96 h, wheat leaf segments, assessed four days after inoculation, read-out: control of fungal infection, Erysiphe graminis f.sp. tritici
Method in brief: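 Wheat leaf segments on agar were sprayed with compound at 200 ppm (DMSO stock diluted in water). After 12–24 h drying they were inoculated with powdery mildew spores. Preventive activity was scored 4 days after inoculation.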

Septoria nodorum = test: Leaf disk assay, Septoria nodorum (wheat glume blotch), preventive; format: in vivo; settings: Parastagonospora nodorum, foliar, 96 h, wheat leaf segments, assessed four days after inoculation, read-out: control of fungal infection, Septoria nodorum
Pyrenophora teres = test: Leaf disk assay, Pyrenophora teres (barley net blotch), preventive; format: in vivo; settings: foliar, 96 h, barley leaf segments, assessed four days after inoculation, read-out: control of fungal infection, Pyrenophora teres
Procedure: The compounds were tested in a leaf disk assay, with methods described below. The test compounds were dissolved in DMSO and diluted into water to 200 ppm. In the case of the test on Pythium ultimum, they were dissolved in DMSO and diluted into water to 20 ppm. Pyrenophora teres (barley net blotch): Barley leaf segments were placed on agar in a 24-well plate and sprayed with a solution of the test compound. After allowing to dry completely, for between 12 and 24 hours, the leaf disks were inoculated with a spore suspension of the fungus. After appropriate incubation the activity of a compound was assessed four days after inoculation as preventive fungicidal activity.

Fusarium culmorum = test: Growth inhibition in nutrient broth, Fusarium culmorum (root rot), photometric; format: cell-based; settings: 48 h, read-out: control of fungal infection, Fusarium culmorum
Method in brief: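 Fusarium culmorum conidia in potato dextrose broth were added to compounds in DMSO. Plates were incubated at 24 C for 48 hrs, with growth inhibition read photometrically. […]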

[2] = test system: Puccinia recondita f.sp. tritici; test: Leaf disk assay, Puccinia recondita f.sp. tritici (wheat brown rust), preventive; format: in vivo; settings: foliar, 216 h, wheat leaf segments, assessed nine days after inoculation, read-out: control of fungal infection, Puccinia recondita f.sp. tritici

CSC(Oc1cc(C)c2ncc(C#CCO)cc2c1)C(=O)NC(C)(C)C (stereo not shown) [Example 17]
≥ 60%: inhibition of growth at 20 ppm (Pythium ultimum) | pest or weed control at 200 ppm (Botrytis cinerea) | pest or weed control at 200 ppm (Phytophthora infestans) | pest or weed control at 200 ppm (Plasmopara viticola) | inhibition of growth at 60 ppm (Septoria tritici)

C#Cc1cnc2ccc(OC(SC)C(=O)NC(C)(C)C#C)cc2c1 (stereo not shown) [Example 21]
≥ 60%: inhibition of growth at 20 ppm (Pythium ultimum) | pest or weed control at 200 ppm [1] | pest or weed control at 200 ppm (Septoria nodorum) | pest or weed control at 200 ppm (Phytophthora infestans) | pest or weed control at 200 ppm (Plasmopara viticola) | inhibition of growth at 60 ppm (Septoria tritici) | pest or weed control at 200 ppm (Pyrenophora teres) | inhibition of growth at 60 ppm (Fusarium culmorum) | pest or weed control at 200 ppm [2]

C#Cc1cnc2ccc(OC(SC)C(=O)NC(C)(C)C#CC)cc2c1 (stereo not shown) [Example 22]
≥ 60%: inhibition of growth at 20 ppm (Pythium ultimum) | pest or weed control at 200 ppm [1] | pest or weed control at 200 ppm (Septoria nodorum) | pest or weed control at 200 ppm (Phytophthora infestans) | pest or weed control at 200 ppm (Plasmopara viticola) | inhibition of growth at 60 ppm (Septoria tritici) | pest or weed control at 200 ppm (Pyrenophora teres) | inhibition of growth at 60 ppm (Fusarium culmorum) | pest or weed control at 200 ppm [2]

C#Cc1cnc2ccc(OC(SC)C(=O)NC(C)(C)C#CCOC)cc2c1 (stereo not shown) [Example 23]
≥ 60%: inhibition of growth at 20 ppm (Pythium ultimum) | pest or weed control at 200 ppm [1] | pest or weed control at 200 ppm (Septoria nodorum) | pest or weed control at 200 ppm (Phytophthora infestans) | pest or weed control at 200 ppm (Plasmopara viticola) | inhibition of growth at 60 ppm (Septoria tritici) | pest or weed control at 200 ppm (Pyrenophora teres) | inhibition of growth at 60 ppm (Fusarium culmorum) | pest or weed control at 200 ppm [2]

C#CCOCC#CC(C)(C)NC(=O)C(Oc1ccc2ncc(C#C)cc2c1)SC (stereo not shown) [Example 24]
≥ 60%: inhibition of growth at 20 ppm (Pythium ultimum) | pest or weed control at 200 ppm [1] | pest or weed control at 200 ppm (Septoria nodorum) | pest or weed control at 200 ppm (Phytophthora infestans) | pest or weed control at 200 ppm (Plasmopara viticola) | inhibition of growth at 60 ppm (Septoria tritici) | pest or weed control at 200 ppm (Pyrenophora teres) | inhibition of growth at 60 ppm (Fusarium culmorum) | pest or weed control at 200 ppm [2]

COCC#CC(C)(C)NC(=O)C(Oc1cc(C)c2ncc(C#CCO)cc2c1)SC (stereo not shown) [Example 28]
≥ 60%: inhibition of growth at 20 ppm (Pythium ultimum) | pest or weed control at 200 ppm (Botrytis cinerea) | pest or weed control at 200 ppm (Phytophthora infestans)

C#Cc1cnc2ccc(OC(SC)C(=O)NC(C)(C)COC)cc2c1 (stereo not shown) [Example 29]
≥ 60%: inhibition of growth at 20 ppm (Pythium ultimum) | pest or weed control at 200 ppm [1] | pest or weed control at 200 ppm (Septoria nodorum) | pest or weed control at 200 ppm (Phytophthora infestans) | pest or weed control at 200 ppm (Plasmopara viticola) | inhibition of growth at 60 ppm (Septoria tritici) | pest or weed control at 200 ppm (Pyrenophora teres) | inhibition of growth at 60 ppm (Fusarium culmorum) | pest or weed control at 200 ppm [2]

COCC#Cc1cnc2ccc(OC(SC)C(=O)NC(C)(C)C#CCOC)cc2c1 (stereo not shown) [Example 44]
≥ 60%: inhibition of growth at 20 ppm (Pythium ultimum) | pest or weed control at 200 ppm [1] | pest or weed control at 200 ppm (Botrytis cinerea) | pest or weed control at 200 ppm (Phytophthora infestans) | pest or weed control at 200 ppm (Plasmopara viticola) | inhibition of growth at 60 ppm (Septoria tritici)

CC#CC(C)(C)NC(=O)C(Oc1ccc2ncc(C#CCOC)cc2c1)SC (stereo not shown) [Example 45]
≥ 60%: inhibition of growth at 20 ppm (Pythium ultimum) | pest or weed control at 200 ppm [1] | pest or weed control at 200 ppm (Botrytis cinerea) | pest or weed control at 200 ppm (Phytophthora infestans) | pest or weed control at 200 ppm (Plasmopara viticola) | inhibition of growth at 60 ppm (Septoria tritici)

CC#Cc1cnc2ccc(OC(SC)C(=O)NC(C)(C)C#CC)cc2c1 (stereo not shown) [Example 56]
≥ 60%: inhibition of growth at 20 ppm (Pythium ultimum) | pest or weed control at 200 ppm [1] | pest or weed control at 200 ppm (Botrytis cinerea) | pest or weed control at 200 ppm (Septoria nodorum) | pest or weed control at 200 ppm (Phytophthora infestans) | pest or weed control at 200 ppm (Plasmopara viticola) | inhibition of growth at 60 ppm (Septoria tritici)

C#CCOCC#CC(C)(C)NC(=O)C(Oc1cc(Cl)c2ncc(C#C)cc2c1)SC (stereo not shown) [Example 63]
≥ 60%: inhibition of growth at 20 ppm (Pythium ultimum) | pest or weed control at 200 ppm [1] | pest or weed control at 200 ppm (Botrytis cinerea) | pest or weed control at 200 ppm (Septoria nodorum) | pest or weed control at 200 ppm (Phytophthora infestans) | pest or weed control at 200 ppm (Plasmopara viticola) | inhibition of growth at 60 ppm (Septoria tritici) | pest or weed control at 200 ppm (Pyrenophora teres) | pest or weed control at 200 ppm [2]

C#Cc1cnc2c(C)cc(OC(SC)C(=O)NC(C)(C)C=O)cc2c1 (stereo not shown) [Example 73]
≥ 60%: inhibition of growth at 20 ppm (Pythium ultimum) | pest or weed control at 200 ppm [1] | pest or weed control at 200 ppm (Botrytis cinerea) | pest or weed control at 200 ppm (Septoria nodorum) | pest or weed control at 200 ppm (Phytophthora infestans) | pest or weed control at 200 ppm (Plasmopara viticola) | inhibition of growth at 60 ppm (Septoria tritici) | pest or weed control at 200 ppm (Pyrenophora teres)

CC#CC(C)(C)NC(=O)C(OC)Oc1ccc2ncc(C#C[Si](C)(C)C)cc2c1 (stereo not shown) [Example 79]
≥ 60%: pest or weed control at 200 ppm [1] | pest or weed control at 200 ppm (Botrytis cinerea) | pest or weed control at 200 ppm (Phytophthora infestans) | pest or weed control at 200 ppm (Plasmopara viticola) | inhibition of growth at 60 ppm (Septoria tritici)

C#Cc1cnc2c(C)cc(OC(SC)C(=O)NC(C)(C)CF)cc2c1 (stereo not shown) [Example 93]
≥ 60%: inhibition of growth at 20 ppm (Pythium ultimum) | pest or weed control at 200 ppm [1] | pest or weed control at 200 ppm (Septoria nodorum) | pest or weed control at 200 ppm (Phytophthora infestans) | pest or weed control at 200 ppm (Plasmopara viticola) | inhibition of growth at 60 ppm (Septoria tritici) | pest or weed control at 200 ppm (Pyrenophora teres) | inhibition of growth at 60 ppm (Fusarium culmorum) | pest or weed control at 200 ppm [2]

C#Cc1cnc2ccc(OC(SC)C(=O)NC(C)(C)CC)cc2c1 (stereo not shown) [Example 94]
≥ 60%: inhibition of growth at 20 ppm (Pythium ultimum) | pest or weed control at 200 ppm [1] | pest or weed control at 200 ppm (Septoria nodorum) | pest or weed control at 200 ppm (Phytophthora infestans) | pest or weed control at 200 ppm (Plasmopara viticola) | inhibition of growth at 60 ppm (Septoria tritici) | pest or weed control at 200 ppm (Pyrenophora teres) | inhibition of growth at 60 ppm (Fusarium culmorum) | pest or weed control at 200 ppm [2]

C#Cc1cnc2cc(F)c(OC(SC)C(=O)NC(C)(C)C)cc2c1 (stereo not shown) [Example 104]
≥ 60%: inhibition of growth at 20 ppm (Pythium ultimum) | pest or weed control at 200 ppm [1] | pest or weed control at 200 ppm (Septoria nodorum) | pest or weed control at 200 ppm (Phytophthora infestans) | pest or weed control at 200 ppm (Plasmopara viticola) | inhibition of growth at 60 ppm (Septoria tritici) | pest or weed control at 200 ppm (Pyrenophora teres) | inhibition of growth at 60 ppm (Fusarium culmorum) | pest or weed control at 200 ppm [2]

C#Cc1cnc2cc(F)c(OC(SC)C(=O)NC(C)(C)C#C)cc2c1 (stereo not shown) [Example 106]
≥ 60%: inhibition of growth at 20 ppm (Pythium ultimum) | pest or weed control at 200 ppm [1] | pest or weed control at 200 ppm (Septoria nodorum) | pest or weed control at 200 ppm (Phytophthora infestans) | pest or weed control at 200 ppm (Plasmopara viticola) | inhibition of growth at 60 ppm (Septoria tritici) | pest or weed control at 200 ppm (Pyrenophora teres) | inhibition of growth at 60 ppm (Fusarium culmorum) | pest or weed control at 200 ppm [2]

C#Cc1cnc2ccc(OC(SC)C(=O)NC(C)(C)C#CCC)cc2c1 (stereo not shown) [Example 117]
≥ 60%: inhibition of growth at 20 ppm (Pythium ultimum) | pest or weed control at 200 ppm [1] | pest or weed control at 200 ppm (Septoria nodorum) | pest or weed control at 200 ppm (Phytophthora infestans) | pest or weed control at 200 ppm (Plasmopara viticola) | inhibition of growth at 60 ppm (Septoria tritici) | pest or weed control at 200 ppm (Pyrenophora teres) | inhibition of growth at 60 ppm (Fusarium culmorum) | pest or weed control at 200 ppm [2]

C#Cc1cnc2c(Br)cc(OC(SC)C(=O)NC(C)(C)C#C)cc2c1 (stereo not shown) [Example 130]
≥ 60%: inhibition of growth at 20 ppm (Pythium ultimum) | pest or weed control at 200 ppm [1] | pest or weed control at 200 ppm (Septoria nodorum) | pest or weed control at 200 ppm (Phytophthora infestans) | pest or weed control at 200 ppm (Plasmopara viticola) | inhibition of growth at 60 ppm (Septoria tritici) | pest or weed control at 200 ppm (Pyrenophora teres) | inhibition of growth at 60 ppm (Fusarium culmorum) | pest or weed control at 200 ppm [2]

C#Cc1cnc2c(Br)cc(OC(SC)C(=O)NC(C)(C)C#CC)cc2c1 (stereo not shown) [Example 131]
≥ 60%: inhibition of growth at 20 ppm (Pythium ultimum) | pest or weed control at 200 ppm [1] | pest or weed control at 200 ppm (Septoria nodorum) | pest or weed control at 200 ppm (Phytophthora infestans) | pest or weed control at 200 ppm (Plasmopara viticola) | inhibition of growth at 60 ppm (Septoria tritici) | pest or weed control at 200 ppm (Pyrenophora teres) | inhibition of growth at 60 ppm (Fusarium culmorum) | pest or weed control at 200 ppm [2]

C#Cc1cnc2c(Br)cc(OC(SC)C(=O)NC(C)(C)C)cc2c1 (stereo not shown) [Example 132]
≥ 60%: inhibition of growth at 20 ppm (Pythium ultimum) | pest or weed control at 200 ppm [1] | pest or weed control at 200 ppm (Septoria nodorum) | pest or weed control at 200 ppm (Phytophthora infestans) | pest or weed control at 200 ppm (Plasmopara viticola) | inhibition of growth at 60 ppm (Septoria tritici) | pest or weed control at 200 ppm (Pyrenophora teres) | inhibition of growth at 60 ppm (Fusarium culmorum) | pest or weed control at 200 ppm [2]

C#Cc1cnc2c(F)c(F)c(OC(SC)C(=O)NC(C)(C)C)cc2c1 (stereo not shown) [Example 219]
≥ 60%: inhibition of growth at 20 ppm (Pythium ultimum) | pest or weed control at 200 ppm [1] | pest or weed control at 200 ppm (Septoria nodorum) | pest or weed control at 200 ppm (Phytophthora infestans) | pest or weed control at 200 ppm (Plasmopara viticola) | inhibition of growth at 60 ppm (Septoria tritici) | pest or weed control at 200 ppm (Pyrenophora teres) | inhibition of growth at 60 ppm (Fusarium culmorum) | pest or weed control at 200 ppm [2]
